According to ChEMBL document CHEMBL1149328, “Estrogen receptor ligands. II. Discovery of benzoxathiins as potent, selective estrogen receptor alpha modulators” (J Med Chem, 2004):

Tests used:
Estrogen receptor beta [1] = target: T1, Estrogen receptor beta (Homo sapiens, UniProt Q92731)
Description: Binding affinity towards human recombinant Estrogen receptor beta was determined

Estrogen receptor [2] = target: T2, Estrogen receptor (Homo sapiens, UniProt P03372)
T2 sequence (P03372 whole entry): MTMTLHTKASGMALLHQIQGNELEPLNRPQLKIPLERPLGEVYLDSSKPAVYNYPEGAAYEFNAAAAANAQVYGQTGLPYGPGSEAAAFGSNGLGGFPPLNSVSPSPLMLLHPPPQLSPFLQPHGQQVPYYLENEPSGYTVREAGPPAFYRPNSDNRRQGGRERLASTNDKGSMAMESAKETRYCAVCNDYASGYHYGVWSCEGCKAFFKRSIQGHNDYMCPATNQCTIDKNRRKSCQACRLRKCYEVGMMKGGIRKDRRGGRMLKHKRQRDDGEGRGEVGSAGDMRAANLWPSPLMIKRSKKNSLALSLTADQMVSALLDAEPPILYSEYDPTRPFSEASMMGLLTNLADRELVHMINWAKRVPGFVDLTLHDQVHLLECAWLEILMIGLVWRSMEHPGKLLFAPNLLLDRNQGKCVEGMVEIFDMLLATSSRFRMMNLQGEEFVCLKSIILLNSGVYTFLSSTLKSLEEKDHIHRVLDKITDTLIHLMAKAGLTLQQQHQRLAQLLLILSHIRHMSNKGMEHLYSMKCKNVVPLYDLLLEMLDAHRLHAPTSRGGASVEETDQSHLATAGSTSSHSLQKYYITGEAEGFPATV
Description: Binding affinity towards human recombinant Estrogen receptor alpha was determined

[3] = target: T3, Estrogen receptor (Rattus norvegicus) (UniProt P06211+Q62986); conditions: at 1 mg/kg
Description: Anti-uterotrophic activity in rats after 1 mg/kg subcutaneous dose for 3 days without estradiol

[4] = target: T3, Estrogen receptor (Rattus norvegicus); conditions: at 1 mg/kg; remark: listed apart in the source
Description: (§1) Anti-uterotrophic activity in rats after 1 mg/kg subcutaneous dose for 3 days with estradiol

[5] = target: T3, Estrogen receptor (Rattus norvegicus); conditions: Uterus, at 1 mg/kg
Description: Uterotrophic activity in rats after 1 mg/kg peroral dose for 3 days without estradiol

[6] = target: T3, Estrogen receptor (Rattus norvegicus); conditions: at 1 mg/kg; remark: listed apart in the source
Description: as §1

[7] = target: T3, Estrogen receptor (Rattus norvegicus); conditions: Uterus, at 0.3 mg/kg
Description: Uterotrophic activity in rats after 0.3 mg/kg peroral dose for 3 days with estradiol

Estrogen receptor [8] = target: T2, Estrogen receptor; assay: In vitro binding affinity for Estrogen receptor alpha in HEK293 cells; assay type: cell-based
Estrogen receptor beta [9] = target: T1, Estrogen receptor beta; assay: biochemical
Description: In vitro binding affinity for Estrogen receptor beta in HEK293 cells

T1 sequence (Q92731 whole entry): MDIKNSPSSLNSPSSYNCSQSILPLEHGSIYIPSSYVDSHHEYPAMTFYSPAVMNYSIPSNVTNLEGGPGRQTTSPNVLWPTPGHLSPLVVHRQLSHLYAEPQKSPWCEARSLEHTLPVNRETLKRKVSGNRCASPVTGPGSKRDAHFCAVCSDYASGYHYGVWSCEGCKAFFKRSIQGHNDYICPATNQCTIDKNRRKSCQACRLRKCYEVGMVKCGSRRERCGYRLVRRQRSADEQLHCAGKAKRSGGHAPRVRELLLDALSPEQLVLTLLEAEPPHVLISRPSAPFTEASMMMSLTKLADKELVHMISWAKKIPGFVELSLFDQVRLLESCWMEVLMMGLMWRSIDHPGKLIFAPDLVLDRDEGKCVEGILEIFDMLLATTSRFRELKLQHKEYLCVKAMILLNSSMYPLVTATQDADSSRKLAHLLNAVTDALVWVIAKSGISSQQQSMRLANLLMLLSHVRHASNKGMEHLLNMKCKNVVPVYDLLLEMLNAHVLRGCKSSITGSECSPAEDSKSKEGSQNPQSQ

| SMILES | IC50 (Estrogen receptor beta [1]) [µM] | IC50 (Estrogen receptor [2]) [µM] | inhibition [4] [%] | further results |
| --- | --- | --- | --- | --- |
| [O-][S+]1c2cc(O)ccc2O[C@H](c2ccc(OCCN3CCCCC3)cc2)[C@@H]1c1ccc(O)cc1 (stereo partly specified) | > 100 | > 100 |  |  |
| Oc1ccc([C@@H]2Sc3cc(O)ccc3O[C@H]2c2ccc(OCCN3CCCCC3)cc2)cc1 (racemic) |  |  | 77 | Control [3]: 5% |
| O=C1c2ccc(O)cc2O[C@H](c2ccc(OCCN3CCCCC3)cc2)[C@@H]1c1ccc(O)cc1 | 2.73 | 0.039 |  |  |
| Oc1ccc2c(c1)S[C@@H](c1ccccc1)[C@@H](c1ccc(OCCN3CCCCC3)cc1)O2 | 0.183 | 0.0062 |  |  |
| Oc1ccc([C@@H]2Sc3cc(O)ccc3O[C@@H]2c2ccc(OCCN3CCCCC3)cc2)cc1 (racemic) |  |  | 18 | Control [3]: 20% |
| Oc1ccc([C@H]2Sc3cc(O)ccc3O[C@H]2c2ccc(OCCN3CCCCC3)cc2)cc1 |  |  |  | Control [5]: 9%; inhibition [6]: 0.4%; inhibition [7]: 11.4% |
| Oc1ccc([C@@H]2Sc3ccccc3O[C@@H]2c2ccc(OCCN3CCCCC3)cc2)cc1 | 0.07 | 0.01 |  |  |
| Oc1ccc([C@@H]2Sc3cc(O)ccc3O[C@@H]2c2ccc(OCCN3CCCCC3)cc2)cc1 (stereo in doubt; 4-L) |  |  | 16 |  |
| O=S1(=O)c2cc(O)ccc2O[C@H](c2ccc(OCCN3CCCCC3)cc2)[C@@H]1c1ccc(O)cc1 | 5.95 | 1.09 |  |  |
| Oc1ccc([C@@H]2Sc3ccc(O)cc3O[C@@H]2c2ccc(OCCN3CCCCC3)cc2)cc1 | 0.045 | 0.0016 |  |  |
| Oc1ccc(C2=C(c3ccc(OCCN4CCCCC4)cc3)Oc3ccc(O)cc3S2)cc1 | 0.0051 | 0.0016 | 55 | IC50 (Estrogen receptor [8]): 0.0051 µM; Control [3]: 45%; IC50 (Estrogen receptor beta [9]): 0.159 µM |
